Measurements from paper PMC12655351, “Synthesis and Anticancer Activity Evaluation of New 5-((5-Nitrofuran-2-yl)allylidene)-2-thioxo-4-thiazolidinones” (Pharmaceuticals, 2025).
Where “and” joins values, the source holds several entries; their conditions need not be identical. Equal entries are not always repeated.

Columns and labels:
CNS cancer = CNS cancer subpanel
HT29 = experiment: cells; settings: Homo sapiens, HT-29, 48 h, HT29, 48 h
CAKI-1 = experiment: cells; settings: Homo sapiens, CAKI-1, 48 h
HT-29 = experiment: MTT assay; format: cell-based; settings: Homo sapiens; HT-29, 24 h of treatment
Procedure, shortened: (§1)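 24 h compound treatment, 7 concs 0.625–40.0 μM, n=3; MTT 2 h 37 °C; lysis buffer 25 mM HCl/2% AcOH/3% DMF/5% SDS pH 4.7; A570.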

Jurkat = experiment: MTT assay; format: cell-based; settings: Homo sapiens, 24 h of treatment
Procedure, shortened: as §1

MCF-7 = experiment: MTT assay; format: cell-based; settings: Homo sapiens, MCF7; MCF-7, 24 h of treatment
Procedure, shortened: as §1

MDA-MB-231 = experiment: MTT assay; format: cell-based; settings: Homo sapiens; MDA-MB-231, 24 h of treatment
Procedure, shortened: as §1

SH SY5Y = experiment: MTT assay; format: cell-based; settings: Homo sapiens, 24 h of treatment
Procedure, shortened: as §1

RPMI 8866 = experiment: MTT assay; format: cell-based; settings: Homo sapiens; RPMI 8866, 24 h of treatment
Procedure, shortened: as §1

DLD-1 = experiment: MTT assay; format: cell-based; settings: Homo sapiens; DLD-1, 24 h of treatment
Procedure, shortened: as §1

HCT-116 = experiment: MTT assay; format: cell-based; settings: Homo sapiens; HCT-116, 24 h of treatment
Procedure, shortened: as §1

EKVX = experiment: NCI-60 SRB screen; settings: 48 h
NCI-H266 = experiment: NCI-60 SRB screen
MCF7 = experiment: NCI-60 SRB screen; settings: MCF7, 48 h
KM12 = experiment: NCI-60 SRB screen; settings: KM12, 48 h
[1] = system: panel of 60 cancer cell lines
Prostate Cancer = experiment: cells; settings: Homo sapiens, read-out: MG_MID GI50
SK-OV-3 = experiment: cells; settings: Homo sapiens, SK-OV-3, 48 h
NCI-H23 = experiment: cells; settings: Homo sapiens, NCI-H23, 48 h
[2] = system: panel of 60 cancer cell lines; experiment: cells; settings: Homo sapiens, read-out: MG_MID GI50
DU-145 = experiment: cells; settings: Homo sapiens, DU-145, 48 h
MOLT-4 = experiment: cells; settings: Homo sapiens, MOLT-4, 48 h
T-47D = experiment: cells; settings: Homo sapiens, T47D, 48 h, read-out: LC50
A498 = experiment: cells; settings: Homo sapiens, A498, 48 h
PC-3 = settings: PC-3, 48 h
HOP-62 = experiment: NCI-60 SRB screen; settings: HOP-62, 48 h
SN12C = experiment: cells; settings: Homo sapiens, 48 h
TK-10 = experiment: cells; settings: Homo sapiens, TK-10, 48 h
A549/ATCC = experiment: NCI-60 SRB screen

O=C(O)CCCCCN1C(=O)/C(=C/C=C/c2ccc([N+](=O)[O-])o2)SC1=S [14b, 6-((Z)-5-((E)-3-(5-nitrofuran-2-yl)allylidene)-4-oxo-2-thioxothiazolidin-3-yl)hexanoic acid]
MG_MID TGI (CNS cancer): 2.62 µM | GI50 (HT29): 1.19 µM | GI50 (CAKI-1): 0.83 µM | IC50 (HT-29): 4.52 µM | IC50 (Jurkat): 0.28 µM | IC50 (MCF-7): 0.85 µM | IC50 (MDA-MB-231): 6.61 µM | IC50 (SH SY5Y): 4.11 µM | IC50 (RPMI 8866): 3.13 µM | IC50 (DLD-1): 1.8 µM | IC50 (HCT-116): 2.11 µM | GI50 (EKVX): 1.68 µM | TGI (EKVX): 3.48 µM and 3.55 µM | GI50 (EKVX; Homo sapiens): 1.74 µM | CC50 (EKVX; Homo sapiens, read-out: LC50, EKVX, 48 h): 6.94 µM | GI50 (NCI-H266; Homo sapiens, 48 h, NCI-H266, 48 h): 2.21 µM | CC50 (NCI-H266; Homo sapiens, 48 h, read-out: LC50, NCI-H266, 48 h): 90.2 µM | GI50 (NCI-H266; NCI-H266, 48 h): 1.96 µM | TGI (NCI-H266; NCI-H266, 48 h): 7.06 µM and 7.95 µM | GI50 (SK-MEL-28; SK-MEL-28, 48 h): 1.19 µM | TGI (SK-MEL-28; SK-MEL-28, 48 h): 3.11 µM and 2.71 µM | CC50 (SK-MEL-28; human, 48 h): 6.21 µM | GI50 (MCF7; Homo sapiens): 0.39 µM | GI50 (MCF7): 0.44 µM | TGI (MCF7): 1.82 µM and 1.99 µM | GI50 (KM12; Homo sapiens): 1.42 µM | GI50 (KM12): 1.19 µM | TGI (KM12): 2.83 µM and 2.67 µM | Positive cytostatic effect (ratio of cell lines with GP from 0 to 50 to total number) ([1]; 10 μM, 48 h): 4/55 | Mean growth ([1]; 10 μM, 48 h, one dose): -67.89% | MG_MID TGI ([1]; full panel (last line of Table S2)): 3.58 µM | GI50 (Prostate Cancer): 1.26 µM | GI50 (SK-OV-3): 1.71 µM | GI50 (NCI-H23): 1.53 µM | CC50 (NCI-H23; read-out: LC50, NCI-H23, 48 h): 6.29 µM | GI50 [2]: 1.1 µM | GI50 (DU-145): 1.52 µM | CC50 (DU-145; read-out: LC50, DU-145, 48 h): 5.44 µM | GI50 (UO-31; UO-31, 48 h): 0.67 µM | TGI (UO-31; UO-31, 48 h): 1.85 µM and 2.05 µM | CC50 (UO-31; human, 48 h): 4.89 µM | GI50 (MOLT-4): 0.37 µM | CC50 (T-47D): > 100 µM | GI50 (A498): 8.13 µM | TGI (PC-3): 3.15 µM and 3.30 µM | GI50 (HOP-62): 1.45 µM | TGI (HOP-62): 3.05 µM and 3.01 µM | GI50 (HOP-62; Homo sapiens): 1.44 µM | GI50 (SN12C): 0.36 µM | CC50 (SN12C; read-out: LC50, SN12C, 48 h): 3.89 µM | GI50 (TK-10): 1.88 µM | CC50 (TK-10; read-out: LC50, TK-10, 48 h): 5.84 µM | GI50 (A549/ATCC; 48 h): 2.38 µM | GI50 (A549/ATCC; Homo sapiens, A549, 48 h): 1.62 µM
